Results as given in US20060063784A1, “Method of using substituted pyrazolo [1,5-a] pyrimidines” (priority 2004, published 2006).

test system: 80S14 (p21-deficient) cells; test: Cytotoxicity assay using isogenic cell lines: IC50 in 80S14 (p21-deficient) cells, SRB; type: cell-based, human; conditions: 80S14 p21-deficient cells, 5 days incubation, SRB; read-out: IC50 for 80SI4
Procedure: Cytotoxicity Assay Using Isogenic Cell Lines: • 1. 80S14 (p21-deficient) cells were cultured in RPMI 1640 medium (Gibco/Invitrogen Life technologies) supplemented with 10% fetal bovine serum (FBS, Gibco) and 10 μg/ml gentamycin (Gibco). Cells were maintained at 37° C. under 7% CO2 • 2. Cells were plated at 6×10^4/ml (0.2 ml/well; 12,000 cells/well) in 96-well microtiter plates (Falcon or Corning/Costar) and incubated at 37° C. overnight (18-24 hours). • 3. 2-5 μl of the test agent [200 μg/ml stock in 20% DMSO/20 mM HEPES, pH 7.5 (Gibco)] was added to each well to achieve a final concentration of 2-5 μg/ml. Cells were incubated with the test compounds for 5 days at 37° C. • 4. Surviving cells were fixed with 50 μl 50% trichloroacetic acid (Sigma; 10% final concentration) for 1 hour at 4° C. • 5. Plates were rinsed twice with water (0.3 ml per wash using MRD8 robot), and allowed to dry. • 6. Sulforhodamine B (SRB) (Sigma; 0.4% in 1% acetic acid, 50 μl per well; MRD8 robot) was added and plates kept at room temperature for 10 minutes. • 7. Excess dye was removed by washing with 1% acetic acid (3 times, 0.3 ml per wash; MRD8 robot) and allowed to dry. • 8. The dye was solubilized in Tris base (Sigma; 10 mM, 150 μl per well). Plates were kept at room temperature for 30 minutes to allow the dye to diffuse. • 9. Absorbance was measured at 540 nm. • 10. The percentage of cells surviving drug treatment relative to control wells (no drug) was determined. • 11. The difference in % cell survival between the two cell lines was calculated. • 12. Compounds producing a difference score of >50 were considered to be selective for the p21-deficient cells and were evaluated further: Determination of selectivity of compounds for p21−/− cells: • 1. 80S14 cells were cultured as described above. • 2. Cells were seeded in 96-well microtiter plates at 12,000 cells/well (either 0.15 ml/well of 8×10^4 cells/ml suspension, or 0.2 ml/well of 6×10^4 cells/ml suspension). Plates were incubated at 37° C. overnight (18-24 hours). • 3. Serial dilutions of the test agent were added to each well. Dilutions were prepared either in 40% DMSO/20% methanol/20 mM HEPES, pH 7.5 (Gibco) or directly in growth medium. One of two dose ranges were used: 5 pM to 50 μM or 170 pg/ml to 10 μg/ml. Cells were incubated with the test compounds for 5 days at 37° C. • 4. Surviving cells were fixed with 50 μl 50% trichloroacetic acid (Sigma; 10% final concentration) for 1 hour at 4° C. • 5. Plates were rinsed extensively in water, and allowed to dry. • 6. Sulforhodamine B (Sigma; 0.4% in 1% acetic acid, 70 μl per well) was added and plates kept at room temperature for 10 minutes. • 7. Excess dye was removed by washing 5 times with 1% acetic acid and plates were allowed to dry. • 8. The dye was solubilized in Tris base (Sigma; 10 mM, 150 μl per well). Plates were placed on a titer plate shaker (Lab Line Instruments) for 5 minutes to allow the dye to diffuse. • 9. Absorbance was measured at 560 nm.
10. The drug concentration that inhibits cell proliferation by 50% relative to untreated controls (IC50) was determined from cytotoxicity curves.

CC(C)[C@H](N)C(=O)Nc1cccc(-c2ccnc3c(C(=O)c4cccs4)cnn23)c1 [Example 83, N-1-{3-[3-(thien-2-ylcarbonyl)pyrazolo[1,5-a]pyrimidin-7-yl]phenyl}-L-valinamide] and CN(C)CC(=O)Nc1cccc(-c2ccnc3c(C(=O)c4cccs4)cnn23)c1 [Example 64, N-2-N-2-dimethyl-N-1-{3-[3-(thien-2-ylcarbonyl)pyrazolo[1,5-a]pyrimidin-7-yl]phenyl}glycinamide] fall in the same range of IC50: 1 to 10 µM for the first, 1 to 10 µM for the second.

First: CCN(CC)CCC(=O)Nc1cccc(-c2ccnc3c(C(=O)c4cccs4)cnn23)c1 [Example 65, N-3,N-3-diethyl-N-1-{3-[3-(thien-2-ylcarbonyl)pyrazolo[1,5-a]pyrimidin-7-yl]phenyl}-beta-alaninamide]
Second: C[C@H](NC(=O)Nc1cccc(-c2ccnc3c(C(=O)c4cccs4)cnn23)c1)c1ccccc1 [Example 11, N-[(1S)-1-phenylethyl]-N′-{3-[3-(thien-2-ylcarbon1)pyrazolo[1,5-a]pyrimidin-7-yl]phenyl}urea]
The IC50 of the first is higher: 10 to 50 µM for the first, 1 to 10 µM for the second.

same assay, conditions: Homo sapiens, 80S14, 120 h, read-out: IC50 for 80S14 (uM)

CC(C)OC(=O)Nc1cccc(-c2ccnc3c(C(=O)c4ccco4)cnn23)c1 [Example 299, Isopropyl 3-[3-(2-furoyl)pyrazolo[1,5-a]pyrimidin-7-yl]phenylcarbamate] gave an IC50 of under 1 µM.

same assay, conditions: Homo sapiens, 80S14, 120 h, read-out: IC50 for 80SI4 (uM)

C#CCCOC(=O)Nc1cccc(-c2ccnc3c(C(=O)c4cccs4)cnn23)c1 [Example 193, but-3-ynyl 3-[3-(thien-2-ylcarbonyl)pyrazolo[1,5-a]pyrimidin-7-yl]phenylcarbamate] and CC(C)COC(=O)Nc1cccc(-c2ccnc3c(C(=O)c4cccs4)cnn23)c1 [Example 16, isobutyl 3-[3-(thien-2-ylcarbonyl)pyrazolo[1,5-a]pyrimidin-7-yl]phenylcarbamate] cannot be ordered by IC50: under 1 µM for the first, under 1 µM for the second.

same assay, conditions: Homo sapiens, 120 h; 80S14 (p21-deficient) cells, 5 days, SRB; class symbols; read-out: IC50 for 80S14

CCCCNC(=O)c1cccc(-c2ccnc3c(C(=O)c4cccs4)cnn23)c1 [Example 319, N-Butyl-3-[3-(2-thienylcarbonyl)pyrazolo[1,5-a]pyrimidin-7-yl]benzamide] and CC(C)CNC(=O)c1cccc(-c2ccnc3c(C(=O)c4cccs4)cnn23)c1 [Example 318, N-Isobutyl-3-[3-(2-thienylcarbonyl)pyrazolo[1,5-a]pyrimidin-7-yl]benzamide] cannot be ordered by IC50: under 1 µM for the first, under 1 µM for the second.

COCCOc1cccc(-c2ccnc3c(C(=O)c4cccs4)cnn23)c1 [Example 264, [7-[3-(2-Methoxyethoxy)phenyl]pyrazolo[1,5-a]pyrimidin-3-yl]-2-thienyl-methanone] and O=C(c1cccs1)c1cnn2c(-c3cccc(C(F)(F)F)c3)ccnc12 [Example 223, [7-(3-Trifluoromethylphenyl)pyrazolo[1,5-a]-pyrimidin-3-yl}-2-thienyl-methanone] fall in the same range of IC50: 1 to 10 µM for the first, 1 to 10 µM for the second.

Compared with O=C(c1cccs1)c1cnn2c(-c3cccc(-c4ccc(CN5CCOCC5)cc4)c3)ccnc12 [Example 459, {7-[4′-(Morpholin-4-ylmethyl)-1,1′-biphenyl-3-yl]pyrazolo[1,5-a]pyrimidin-3-yl}(thien-2-yl)methanone], O=C(c1ccco1)c1cnn2c(-c3cccc(N4CCCCC4=O)c3)ccnc12 [Example 226, 1-[3-[3-(2-Furanylcarbonyl)pyrazolo-[1,5-a]pyrimidin-7-yl]phenyl}-2-piperidinone] is higher in IC50: under 1 µM for the first, 10 to 50 µM for the second.

CN(C)c1ccc(-c2ccnc3c(C(=O)c4cccs4)cnn23)cc1NC(=O)c1ccncc1 [Example 428, N-{2-(Dimethylamino)-5-[3-(thien-2-ylcarbonyl)pyrazolo[1,5-a]pyrimidin-7-yl]phenyl}isonicotinamide] and COc1ccc(-c2ccnc3c(C(=O)c4cccs4)cnn23)cc1NC(=O)CC(C)C [Example 317, N-{2-Methoxy-5-[3-(2-thienylcarbonyl)pyrazolo[1,5-a]pyrimidin-7-yl]phenyl}-3-methylbutanamide] fall in the same range of IC50: 1 to 10 µM for the first, 1 to 10 µM for the second.

First: Cc1cc(C)cc(-c2cnn3c(-c4cccc(-c5nnn(CCN6CCCC6)n5)c4)ccnc23)c1 [Example 498, 3-(3,5-Dimethylphenyl)-7-{3-[2-(2-pyrrolidin-1-ylethyl)-2H-tetrazol-5-yl]phenyl}pyrazolo[1,5-a]pyrimidine]
Second: O=[N+]([O-])c1cccc(-c2ccnc3c(-c4ccsc4)cnn23)c1 [Example 325, 7-(3-Nitrophenyl)-3-(3-thienyl)pyrazolo[1,5-a]pyrimidine]
The IC50 of the first is lower: 1 to 10 µM for the first, 10 to 50 µM for the second.

First: CC(C)COC(=O)Nc1cccc(-c2ccnc3c(-c4cccs4)cnn23)c1 [Example 407, Isobutyl 3-(3-thien-2-ylpyrazolo[1,5-a]pyrimidin-7-yl)phenylcarbamate]
Second: CCCCC/C(=C\c1ccccc1)CNc1cccc(-c2ccnc3c(C(=O)c4cccs4)cnn23)c1 [Example 410, [7-(3-{[(2E)-2-Pentyl-3-phenylprop-2-enyl]amino}phenyl)pyrazolo[1,5-a]pyrimidin-3-yl](thien-2-yl)methanone]
The IC50 of the first is lower: 1 to 10 µM for the first, 10 to 50 µM for the second. The first is the more potent here.

First: O=C(c1cccs1)c1cnn2c(-c3cc([N+](=O)[O-])ccc3Cl)ccnc12 [Example 336, [7-(2-Chloro-5-nitrophenyl)pyrazolo[1,5-a]pyrimidin-3-yl](thien-2-yl)methanone]
Second: Cc1cc(-c2cccc(NC(=O)C3CCC3)c2)n2ncc(C(=O)c3cccs3)c2n1 [Example 279, N-{3-[5-Methyl-3-(2-thienylcarbonyl)pyrazolo[1,5-a]pyrimidin-7-yl]phenyl}cyclobutanecarboxamide]
The IC50 of the first is higher: 10 to 50 µM for the first, under 1 µM for the second. The second is the more potent here.

same assay, conditions: Homo sapiens, 120 h; 80S14 p21-deficient cells, 5 days incubation, SRB; read-out: IC50 for 80SI4

O=C(Nc1cccc(-c2ccnc3c(C(=O)c4cccs4)cnn23)c1)c1cccc(F)c1 [Example 98, 3-fluoro-N-{3-[3-(thien-2-ylcarbonyl)pyrazolo[1,5-a]pyrimidin-7-yl]phenyl}benzamide] and COc1cccc(CC(=O)Nc2cccc(-c3ccnc4c(C(=O)c5cccs5)cnn34)c2)c1 [Example 107, 2-(3-methoxyphenyl)-N-{3-[3-(thien-2-ylcarbonyl)pyrazolo[1,5-a]pyrimidin-7-yl]phenyl}acetamide] cannot be ordered by IC50: under 1 µM for the first, under 1 µM for the second.

O=C(CNC(=O)OCc1ccccc1)Nc1cccc(-c2ccnc3c(C(=O)c4cccs4)cnn23)c1 [Example 125, benzyl 2-oxo-2-({3-[3-(thien-2-ylcarbonyl)pyrazolo[1,5-a]pyrimidin-7-yl]phenyl}amino)ethylcarbamate] and C#CCOC(=O)NCC(=O)Nc1cccc(-c2ccnc3c(C(=O)c4cccs4)cnn23)c1 [Example 123, prop-2-ynyl 2-oxo-2-({3-[3-(thien-2-ylcarbonyl)pyrazolo[1,5-a]pyrimidin-7-yl]phenyl}amino)ethylcarbamate] fall in the same range of IC50: 1 to 10 µM for the first, 1 to 10 µM for the second.

CCCCNC(=O)Nc1cccc(-c2c(C)cnc3c(C(=O)c4cccs4)cnn23)c1 [Example 221, N-butyl-N′-{3-[6-methyl-3-(thien-2-ylcarbonyl)pyrazolo[1,5-a]pyrimidin-7-yl]phenyl}urea] and C=CCOC(=O)Nc1cccc(-c2c(C)cnc3c(C(=O)c4cccs4)cnn23)c1 [Example 210, allyl 3-[6-methyl-3-(thien-2-ylcarbonyl)pyrazolo[1,5-a]pyrimidin-7-yl]phenylcarbamate] fall in the same range of IC50: 10 to 50 µM for the first, 10 to 50 µM for the second.

First: Cn1cnc(S(=O)(=O)Nc2cccc(-c3ccnc4c(C(=O)c5cccs5)cnn34)c2)c1 [Example 39, 1-methyl-N-{3-[3-(thien-2-ylcarbonyl)pyrazolo[1,5-a]pyrimidin-7-yl]phenyl}-1H-imidazole-4-sulfonamide]
Second: O=C(CC1Cc2ccccc2C1)Nc1cccc(-c2ccnc3c(C(=O)c4cccs4)cnn23)c1 [Example 67, 2-(2,3-dihydro-1H-inden-2-yl)-N-{3-[3-(thien-2-ylcarbonyl)pyrazolo[1,5-a]pyrimidin-7-yl]phenyl}acetamide]
The IC50 of the first is higher: 10 to 50 µM for the first, under 1 µM for the second.
